Data set [1] has as its target Cathepsin B (Homo sapiens, UniProt P07858). Nature of the data set: Cathepsin B (CatB) cleavage assay. The class given is biochemical. As to conditions: for % Parent remaining after incubation with CatB, T = 1 h / % Parent remaining after incubation with CatB, T = 4 h / % Parent remaining after incubation with CatB, T = 24 h: norfloxacin linker compounds; for % Parent remaining after incubation with CatB, 0 h / % Parent remaining after incubation with CatB, 1 h / % Parent remaining after incubation with CatB, 2 h / % Parent remaining after incubation with CatB, 4 h / % Parent remaining after incubation with CatB, 6 h / % Parent remaining after incubation with CatB, 24 h / half-life at 40 μM: BTCs; for half-life at 40 μM: read-out: CatB t1/2 (converted). How it is done: 15 μL of test compound solution (2 mM in DMSO) was added to the incubation plate in duplicate. 30 μL of Cathepsin B stock solution (16 μM) was pre-activated with 1500 μL activation buffer for 10 min at room temperature. The Cathepsin B solution was diluted in 13.17 mL water, then 735 μL activatived enzyme mixture was added to the incubation plate. The mixture was incubated at 37° C. in a waterbath. […] The samples were mixed and centrifuged at 4000 rpm for 20 min. 50 μL of supernatant was taken into a new plate containing 150 μL ultra-pure water and the samples mixed thoroughly before submitting to LC-MS/MS analysis.

Data set [2] in a line: in vitro. As to conditions: for fold increase in half-life vs Cit-Val: 2 μM; for half-life at 2 μM: plasma. How it is done:
Pooled frozen plasma was thawed in a water bath at 37° C. Plasma was centrifuged at 4000 rpm for 5 min and the clots were removed if any. The pH will be adjusted to 7.4±0.1 if required. 1 mM stock solution was prepared with DMSO. Propantheline (positive control) was prepared by making a 100 μM working solution by diluting 5 μL of the stock solution (10 mM) with 495 μL ultra pure water. 100 μM working solutions of test compounds were made up by diluting 10 μL of the stock solution (1 mM) with 90 μL DMSO. 98 μL of blank plasma was spiked with 2 μL of dosing solution (100 μM) to achieve 2 μM of the final concentration in duplicate and samples were incubated at 37° C. in a water bath. […] An aliquot of supernatant (150 μL) was transferred from each well before submitting for LC-MS/MS analysis.
The % remaining test compound after incubation in plasma was calculated using following equation: Remaining=100×(PAR at appointed incubation time/PAR at T0 time)
where PAR is the peak area ratio of analyte versus internal standard (IS).
The half-life (T½) was calculated from a log linear plot of concentration versus time.

The mark [3] stands for this setting: pH 7.4, Mouse plasma t1/2 (EDTA), BTCs, EDTA anticoagulant.

Molecules are shown by their SMILES.

As to `CCn1cc(C(=O)O)c(=O)c2cc(F)c(N3CCN(C(=O)OCc4ccc(NC(=O)[C@H](CCCNC(N)=O)NC(=O)[C@@H](NC(=O)CCCC(=O)N(C)C)C(C)C)cc4)CC3)cc21` [BCY9422, reference compound], in data set [1], the “% Parent remaining after incubation with CatB, T = 1 h” value (shortened to “% Parent remaining … T = 1 h”) was 3%; the “% Parent remaining after incubation with CatB, T = 4 h” value (“% Parent remaining … T = 4 h” below) is given as 0%; the “% Parent remaining after incubation with CatB, T = 24 h” value (from here on “% Parent remaining … T = 24 h”) stood at 0%. Also, in data set [2] (mouse, pH 7.4), the “fold increase in half-life vs Cit-Val” value came out at 1.0 fold and the half-life at 2 μM was 24 min.
Regarding `CCn1cc(C(=O)O)c(=O)c2cc(F)c(N3CCN(C(=O)OCc4ccc(NC(=O)[C@H](CCNC(=N)N)NC(=O)[C@@H](NC(=O)CCCC(=O)N(C)C)C(C)C)cc4)CC3)cc21` [BCY9423], in data set [1], the “% Parent remaining … T = 1 h” value stood at 0.6%; the “% Parent remaining … T = 4 h” value stood at 0%; the “% Parent remaining … T = 24 h” value came to 0%. Besides, in data set [2] (mouse, pH 7.4), the “fold increase in half-life vs Cit-Val” value came to 6.0 fold and the half-life at 2 μM was 144 min.
For `CCn1cc(C(=O)O)c(=O)c2cc(F)c(N3CCN(C(=O)OCc4ccc(NC(=O)[C@H](CCN)NC(=O)[C@@H](NC(=O)CCCC(=O)N(C)C)C(C)C)cc4)CC3)cc21` [BCY9474], in data set [1], the “% Parent remaining … T = 1 h” value was 0.3%; the “% Parent remaining … T = 4 h” value was 0%; the “% Parent remaining … T = 24 h” value amounted to 0%. For the same compound, in data set [2] (mouse, pH 7.4), the “fold increase in half-life vs Cit-Val” value is 10.8 fold and the half-life at 2 μM is 258 min.
Take `CCn1cc(C(=O)O)c(=O)c2cc(F)c(N3CCN(C(=O)OCc4ccc(NC(=O)[C@H](CCNC(=N)NC)NC(=O)[C@@H](NC(=O)CCCC(=O)N(C)C)C(C)C)cc4)CC3)cc21` [BCY9477]: in data set [1], the “% Parent remaining … T = 1 h” value came out at 0%; the “% Parent remaining … T = 4 h” value came out at 0%; the “% Parent remaining … T = 24 h” value was determined as 0%. In addition, in data set [2] (mouse, pH 7.4), the “fold increase in half-life vs Cit-Val” value was 6.3 fold and the half-life at 2 μM was 150 min.
For `CCn1cc(C(=O)O)c(=O)c2cc(F)c(N3CCN(C(=O)OCc4ccc(NC(=O)[C@H](CCNC(=N)N)NC(=O)[C@@H](NC(=O)[C@H](CCC(=O)O)NC(=O)CCCC(=O)N(C)C)C(C)C)cc4)CC3)cc21` [BCY9695], in data set [1], the “% Parent remaining … T = 1 h” value is reported as 0%; the “% Parent remaining … T = 4 h” value was 0%; the “% Parent remaining … T = 24 h” value was found to be 0%. In data set [2] (mouse, pH 7.4), the “fold increase in half-life vs Cit-Val” value worked out at 34.1 fold and the half-life at 2 μM was 858 min.
For the compound `CCn1cc(C(=O)O)c(=O)c2cc(F)c(N3CCN(C(=O)OCc4ccc(NC(=O)[C@H](CCCNC(N)=O)NC(=O)[C@@H](NC(=O)[C@H](CCC(=O)O)NC(=O)CCCC(=O)N(C)C)C(C)C)cc4)CC3)cc21` [BCY9696], in data set [1], the “% Parent remaining … T = 1 h” value worked out at 0%; the “% Parent remaining … T = 4 h” value was 0%; the “% Parent remaining … T = 24 h” value turned out to be 0%. Besides, in data set [2] (mouse, pH 7.4), the “fold increase in half-life vs Cit-Val” value was 25.1 fold and the half-life at 2 μM is 648 min.
For the compound `CCn1cc(C(=O)O)c(=O)c2cc(F)c(N3CCN(C(=O)OCc4ccc(NC(=O)[C@H](CCN)NC(=O)[C@@H](NC(=O)[C@H](CCC(=O)O)NC(=O)CCCC(=O)N(C)C)C(C)C)cc4)CC3)cc21` [BCY10122], in data set [1], the “% Parent remaining … T = 1 h” value worked out at 0%; the “% Parent remaining … T = 4 h” value is listed as 0%; the “% Parent remaining … T = 24 h” value was 0%. Further, in data set [2] (mouse, pH 7.4), the “fold increase in half-life vs Cit-Val” value is 107.5 fold and the half-life at 2 μM was 2340 min.
As for `CCn1cc(C(=O)O)c(=O)c2cc(F)c(N3CCN(C(=O)OCc4ccc(NC(=O)[C@H](CN)NC(=O)[C@@H](NC(=O)[C@H](CCC(=O)O)NC(=O)CCCC(=O)N(C)C)C(C)C)cc4)CC3)cc21` [BCY10297], in data set [1], the “% Parent remaining … T = 1 h” value was determined as 75%; the “% Parent remaining … T = 4 h” value is recorded as 15%; the “% Parent remaining … T = 24 h” value came to 0%. In addition, in data set [2] (mouse, pH 7.4), the “fold increase in half-life vs Cit-Val” value is reported as 19.3 fold and the half-life at 2 μM was 930 min.
On the same counts, the results for `CCn1cc(C(=O)O)c(=O)c2cc(F)c(N3CCN(C(=O)OCc4ccc(NC(=O)[C@H](CN)NC(=O)[C@@H](NC(=O)CCCC(=O)N(C)C)C(C)C)cc4)CC3)cc21` [BCY10298] are 92%, 63%, 6%, 6.5 fold and 156 min.
Consider `CCn1cc(C(=O)O)c(=O)c2cc(F)c(N3CCN(C(=O)OCc4ccc(NC(=O)[C@H](CNC(=N)N)NC(=O)[C@@H](NC(=O)CCCC(=O)N(C)C)C(C)C)cc4)CC3)cc21` [BCY10300], for which, in data set [1], the “% Parent remaining … T = 1 h” value turned out to be 72%; the “% Parent remaining … T = 4 h” value is reported as 10%; the “% Parent remaining … T = 24 h” value came out at 0%. In data set [2] (mouse, pH 7.4), the “fold increase in half-life vs Cit-Val” value is 3.4 fold and the half-life at 2 μM was 84 min.
As for `CC[C@H](C)[C@@H]([C@@H](CC(=O)N1CCC[C@H]1[C@H](OC)[C@@H](C)C(=O)N[C@H](C)[C@@H](O)c1ccccc1)OC)N(C)C(=O)[C@@H](NC(=O)[C@H](C(C)C)N(C)C(=O)OCc1ccc(NC(=O)[C@H](CN)NC(=O)[C@@H](NC(=O)[C@H](CCC(=O)O)NC(=O)Cn2cc(CCC(=O)NCCC(=O)N(C)CC(=O)N(C)CC(=O)N(C)CC(=O)N(C)CC(=O)N(C)CC(=O)N(C)CC(=O)N(C)CC(=O)N(C)CC(=O)N(C)CC(=O)N(C)CC(=O)N[C@@H](C)C(=O)N[C@H]3CN(C)Cc4cc5cc(c4)CN(C)C[C@@H](C(N)=O)NC(=O)[C@H](C(C)(C)C)NC(=O)[C@H](CC(=O)O)NC(=O)[C@H](Cc4ccc(O)cc4)NC(=O)[C@H](Cc4ccccc4)NC(=O)[C@H](CC(=O)O)NC(=O)[C@H](CCC(=O)O)NC(=O)[C@H](CSC5)NC(=O)[C@@H](C)NC(=O)[C@H](Cc4cccc5ccccc45)NC(=O)[C@H](CCC(=O)O)NC(=O)[C@H](CC(N)=O)NC(=O)[C@@H](C)NC3=O)nn2)C(C)C)cc1)C(C)C` [BCY10982, MMAE-PAB-(Dap-Val-Glu)-BCY3900], in data set [1], the “% Parent remaining after incubation with CatB, 0 h” value was 100%; the “% Parent remaining after incubation with CatB, 1 h” value was 85.435%; the “% Parent remaining after incubation with CatB, 2 h” value came out at 82.3%; the “% Parent remaining after incubation with CatB, 4 h” value was 73.1%. Moreover, in data set [1], the “% Parent remaining after incubation with CatB, 6 h” value is 72.3%; the “% Parent remaining after incubation with CatB, 24 h” value was 73.91%; the half-life at 40 μM is more than 2.41 days. The compound also had a half-life at 2 μM in data set [2] (setting [3]) of 3350 min.
Consider `CC[C@H](C)[C@@H]([C@@H](CC(=O)N1CCC[C@H]1[C@H](OC)[C@@H](C)C(=O)N[C@H](C)[C@@H](O)c1ccccc1)OC)N(C)C(=O)[C@@H](NC(=O)[C@H](C(C)C)N(C)C(=O)OCc1ccc(NC(=O)[C@H](CCN)NC(=O)[C@@H](NC(=O)[C@H](CCC(=O)O)NC(=O)Cn2cc(CCC(=O)NCCC(=O)N(C)CC(=O)N(C)CC(=O)N(C)CC(=O)N(C)CC(=O)N(C)CC(=O)N(C)CC(=O)N(C)CC(=O)N(C)CC(=O)N(C)CC(=O)N(C)CC(=O)N[C@@H](C)C(=O)N[C@H]3CN(C)Cc4cc5cc(c4)CN(C)C[C@@H](C(N)=O)NC(=O)[C@H](C(C)(C)C)NC(=O)[C@H](CC(=O)O)NC(=O)[C@H](Cc4ccc(O)cc4)NC(=O)[C@H](Cc4ccccc4)NC(=O)[C@H](CC(=O)O)NC(=O)[C@H](CCC(=O)O)NC(=O)[C@H](CSC5)NC(=O)[C@@H](C)NC(=O)[C@H](Cc4cccc5ccccc45)NC(=O)[C@H](CCC(=O)O)NC(=O)[C@H](CC(N)=O)NC(=O)[C@@H](C)NC3=O)nn2)C(c2ccccc2)c2ccccc2)cc1)C(C)C` [BCY10987, MMAE-PAB-(Dab-Dpa-Glu)-BCY3900], for which, in data set [1], the “% Parent remaining after incubation with CatB, 0 h” value amounted to 100%; the “% Parent remaining after incubation with CatB, 1 h” value worked out at 104.27%; the “% Parent remaining after incubation with CatB, 2 h” value amounted to 90.6%; the “% Parent remaining after incubation with CatB, 4 h” value worked out at 90.2%. In addition, in data set [1], the “% Parent remaining after incubation with CatB, 6 h” value is 94%; the “% Parent remaining after incubation with CatB, 24 h” value stood at 91.48%; the half-life at 40 μM was more than 2.41 days. In addition, the half-life at 2 μM in data set [2] (setting [3]) is more than 3470 min.

(Values after US12540161B2, “Linkers” (BicycleTx Limited, priority 2020, dated 2026).)
